# Measurements as given in ChEMBL document CHEMBL5291721, “A preclinical secondary pharmacology resource illuminates target-adverse drug reaction associations of marketed drugs” (Nat Commun, 2023).
# Legend:
# Glucocorticoid receptor [1] = biological target: T1, Glucocorticoid receptor (Homo sapiens, UniProt P04150); assay type: functional
# T1 sequence (P04150 whole entry): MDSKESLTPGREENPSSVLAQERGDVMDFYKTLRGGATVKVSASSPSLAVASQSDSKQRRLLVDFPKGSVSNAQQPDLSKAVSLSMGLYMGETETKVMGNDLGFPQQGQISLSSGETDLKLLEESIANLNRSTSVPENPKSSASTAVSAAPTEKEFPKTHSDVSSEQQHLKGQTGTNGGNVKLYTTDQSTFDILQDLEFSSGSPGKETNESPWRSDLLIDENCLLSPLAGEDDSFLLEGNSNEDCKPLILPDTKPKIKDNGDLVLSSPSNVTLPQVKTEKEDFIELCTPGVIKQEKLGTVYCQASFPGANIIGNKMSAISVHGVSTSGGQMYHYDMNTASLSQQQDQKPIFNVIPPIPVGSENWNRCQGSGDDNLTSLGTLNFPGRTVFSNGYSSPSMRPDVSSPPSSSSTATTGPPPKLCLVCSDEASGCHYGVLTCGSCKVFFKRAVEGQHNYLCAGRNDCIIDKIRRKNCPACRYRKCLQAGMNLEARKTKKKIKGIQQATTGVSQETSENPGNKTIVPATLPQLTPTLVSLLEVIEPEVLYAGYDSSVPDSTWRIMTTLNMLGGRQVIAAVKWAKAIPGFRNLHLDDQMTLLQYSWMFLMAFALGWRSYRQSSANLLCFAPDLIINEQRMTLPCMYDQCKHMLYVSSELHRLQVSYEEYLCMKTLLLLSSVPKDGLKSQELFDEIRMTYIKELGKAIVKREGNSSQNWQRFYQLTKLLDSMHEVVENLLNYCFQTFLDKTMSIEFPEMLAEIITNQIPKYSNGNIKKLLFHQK
# [2] = biological target: T2, Peroxisome proliferator-activated receptor gamma (Homo sapiens, UniProt P37231); assay type: functional
# T2 sequence (P37231 whole entry): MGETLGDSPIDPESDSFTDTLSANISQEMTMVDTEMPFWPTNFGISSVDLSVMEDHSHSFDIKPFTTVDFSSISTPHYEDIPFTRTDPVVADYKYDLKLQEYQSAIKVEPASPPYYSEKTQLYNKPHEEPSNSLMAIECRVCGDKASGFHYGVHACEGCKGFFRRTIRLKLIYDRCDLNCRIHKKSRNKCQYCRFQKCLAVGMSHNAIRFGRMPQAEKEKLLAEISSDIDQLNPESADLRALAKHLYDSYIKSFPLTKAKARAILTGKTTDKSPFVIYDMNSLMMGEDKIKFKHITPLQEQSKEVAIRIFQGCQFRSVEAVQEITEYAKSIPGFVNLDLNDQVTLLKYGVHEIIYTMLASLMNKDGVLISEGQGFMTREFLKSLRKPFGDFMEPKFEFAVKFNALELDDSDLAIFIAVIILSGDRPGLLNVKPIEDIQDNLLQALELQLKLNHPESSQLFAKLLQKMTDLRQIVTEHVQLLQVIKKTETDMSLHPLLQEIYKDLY
# Glucocorticoid receptor [3] = biological target: T1, Glucocorticoid receptor; assay type: functional; remark: listed apart in the source
# Estrogen receptor beta = Estrogen receptor beta (Homo sapiens, UniProt Q92731)
# [4] = biological target: Neurotensin receptor type 1 (Homo sapiens, UniProt P30989)
# [5] = biological target: T3, Corticotropin-releasing factor receptor 1 (Homo sapiens, UniProt P34998)
# T3 sequence (P34998 whole entry): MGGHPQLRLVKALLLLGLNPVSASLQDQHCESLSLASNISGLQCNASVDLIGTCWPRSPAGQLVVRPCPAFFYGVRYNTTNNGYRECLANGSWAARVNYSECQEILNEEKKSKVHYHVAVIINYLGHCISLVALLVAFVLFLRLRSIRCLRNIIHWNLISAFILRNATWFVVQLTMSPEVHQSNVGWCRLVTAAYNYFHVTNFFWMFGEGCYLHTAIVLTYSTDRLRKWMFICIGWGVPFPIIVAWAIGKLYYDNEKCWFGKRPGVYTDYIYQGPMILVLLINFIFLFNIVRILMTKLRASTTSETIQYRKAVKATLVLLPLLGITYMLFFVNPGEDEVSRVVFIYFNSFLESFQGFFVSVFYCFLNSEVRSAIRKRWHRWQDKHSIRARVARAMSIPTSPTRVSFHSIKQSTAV
# [6] = biological target: Beta-3 adrenergic receptor (Homo sapiens, UniProt P13945)
# [7] = biological target: Synaptic vesicular amine transporter (Rattus norvegicus, UniProt Q01827); assay type: functional
# [8] = biological target: T4, Muscarinic acetylcholine receptor M1 (Homo sapiens, UniProt P11229); assay type: functional, cell-based
# T4 sequence (P11229 whole entry): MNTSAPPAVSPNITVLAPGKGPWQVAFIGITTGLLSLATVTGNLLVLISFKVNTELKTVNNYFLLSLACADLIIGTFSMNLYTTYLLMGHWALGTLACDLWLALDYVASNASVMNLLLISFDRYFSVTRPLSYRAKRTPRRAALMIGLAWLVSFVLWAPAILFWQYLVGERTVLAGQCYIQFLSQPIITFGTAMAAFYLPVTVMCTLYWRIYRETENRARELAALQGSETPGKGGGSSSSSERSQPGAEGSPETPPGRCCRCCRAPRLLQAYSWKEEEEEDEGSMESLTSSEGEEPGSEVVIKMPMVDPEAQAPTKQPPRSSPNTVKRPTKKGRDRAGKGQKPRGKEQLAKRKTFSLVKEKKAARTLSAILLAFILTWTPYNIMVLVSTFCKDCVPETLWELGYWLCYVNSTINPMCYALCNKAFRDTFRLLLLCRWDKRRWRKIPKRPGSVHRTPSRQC
# [9] = biological target: Gamma-aminobutyric acid receptor subunit alpha-1 (Rattus norvegicus, UniProt P62813)
# D(1A) dopamine receptor = D(1A) dopamine receptor (Homo sapiens, UniProt P21728)
# [10] = biological target: 5-hydroxytryptamine receptor 2B (Homo sapiens, UniProt P41595)
# [11] = biological target: 5-hydroxytryptamine receptor 6 (Homo sapiens, UniProt P50406)
# [12] = biological target: 5-hydroxytryptamine receptor 7 (Homo sapiens, UniProt P34969)
# Note: assay procedure not described here.
# Synaptic vesicular amine transporter, sequence (Q01827 whole entry): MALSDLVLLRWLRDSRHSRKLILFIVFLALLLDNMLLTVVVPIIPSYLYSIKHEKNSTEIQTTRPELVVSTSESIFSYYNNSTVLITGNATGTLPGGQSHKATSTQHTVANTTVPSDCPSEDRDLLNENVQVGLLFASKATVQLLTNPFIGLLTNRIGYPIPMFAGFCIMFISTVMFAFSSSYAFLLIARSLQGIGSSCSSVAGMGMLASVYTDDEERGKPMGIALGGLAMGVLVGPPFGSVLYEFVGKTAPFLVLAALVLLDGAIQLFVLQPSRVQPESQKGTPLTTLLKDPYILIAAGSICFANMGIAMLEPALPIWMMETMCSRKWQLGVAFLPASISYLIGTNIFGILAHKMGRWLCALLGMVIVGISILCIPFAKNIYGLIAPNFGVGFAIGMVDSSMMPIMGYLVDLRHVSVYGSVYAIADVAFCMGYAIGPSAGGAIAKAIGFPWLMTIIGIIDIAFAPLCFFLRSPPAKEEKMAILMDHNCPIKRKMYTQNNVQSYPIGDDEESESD
# Gamma-aminobutyric acid receptor subunit alpha-1, sequence (P62813 whole entry): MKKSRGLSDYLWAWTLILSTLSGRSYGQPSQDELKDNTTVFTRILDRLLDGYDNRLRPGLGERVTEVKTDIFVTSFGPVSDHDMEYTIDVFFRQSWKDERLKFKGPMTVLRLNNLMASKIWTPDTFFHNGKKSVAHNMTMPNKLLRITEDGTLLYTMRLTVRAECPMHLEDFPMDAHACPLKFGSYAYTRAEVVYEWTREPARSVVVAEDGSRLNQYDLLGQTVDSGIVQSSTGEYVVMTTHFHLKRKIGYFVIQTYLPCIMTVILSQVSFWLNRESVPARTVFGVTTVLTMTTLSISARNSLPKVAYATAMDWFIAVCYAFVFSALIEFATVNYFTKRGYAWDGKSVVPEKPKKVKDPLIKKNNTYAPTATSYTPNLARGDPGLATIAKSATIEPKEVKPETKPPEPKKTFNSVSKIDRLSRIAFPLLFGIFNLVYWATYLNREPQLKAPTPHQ
# 5-hydroxytryptamine receptor 2B, sequence (P41595 whole entry): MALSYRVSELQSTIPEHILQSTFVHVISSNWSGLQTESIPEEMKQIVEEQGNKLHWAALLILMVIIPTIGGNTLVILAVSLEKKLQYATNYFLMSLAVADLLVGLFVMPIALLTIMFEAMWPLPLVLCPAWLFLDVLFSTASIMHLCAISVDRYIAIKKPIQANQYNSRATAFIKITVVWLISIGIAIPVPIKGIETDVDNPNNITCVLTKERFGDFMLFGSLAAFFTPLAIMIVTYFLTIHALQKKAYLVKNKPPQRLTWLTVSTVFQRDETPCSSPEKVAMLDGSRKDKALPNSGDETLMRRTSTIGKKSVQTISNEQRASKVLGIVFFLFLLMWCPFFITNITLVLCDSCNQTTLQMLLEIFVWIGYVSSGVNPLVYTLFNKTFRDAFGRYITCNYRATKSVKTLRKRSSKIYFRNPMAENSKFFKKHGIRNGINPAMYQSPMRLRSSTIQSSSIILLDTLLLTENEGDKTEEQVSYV
# Beta-3 adrenergic receptor, sequence (P13945 whole entry): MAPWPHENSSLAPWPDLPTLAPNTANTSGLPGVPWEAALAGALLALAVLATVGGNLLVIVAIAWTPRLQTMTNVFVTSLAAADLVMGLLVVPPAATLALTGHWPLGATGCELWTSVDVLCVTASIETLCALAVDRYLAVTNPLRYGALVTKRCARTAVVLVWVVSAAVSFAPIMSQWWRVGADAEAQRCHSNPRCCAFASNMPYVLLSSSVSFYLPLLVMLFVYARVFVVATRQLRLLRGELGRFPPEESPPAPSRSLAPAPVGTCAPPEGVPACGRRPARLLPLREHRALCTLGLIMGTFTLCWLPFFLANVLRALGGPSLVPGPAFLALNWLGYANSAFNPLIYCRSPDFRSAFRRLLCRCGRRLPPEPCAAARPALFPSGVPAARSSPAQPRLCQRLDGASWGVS
# D(1A) dopamine receptor, sequence (P21728 whole entry): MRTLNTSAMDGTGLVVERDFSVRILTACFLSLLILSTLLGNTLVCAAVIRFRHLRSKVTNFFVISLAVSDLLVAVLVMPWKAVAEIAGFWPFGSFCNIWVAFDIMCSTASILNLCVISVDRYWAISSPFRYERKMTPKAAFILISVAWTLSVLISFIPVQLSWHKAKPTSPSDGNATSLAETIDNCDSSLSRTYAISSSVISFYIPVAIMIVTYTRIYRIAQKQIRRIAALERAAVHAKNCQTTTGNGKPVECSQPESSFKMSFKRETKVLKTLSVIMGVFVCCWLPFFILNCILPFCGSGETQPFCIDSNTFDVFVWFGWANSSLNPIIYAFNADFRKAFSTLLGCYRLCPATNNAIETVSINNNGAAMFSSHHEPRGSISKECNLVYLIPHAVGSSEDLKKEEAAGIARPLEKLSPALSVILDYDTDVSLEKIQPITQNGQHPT
# Neurotensin receptor type 1, sequence (P30989 whole entry): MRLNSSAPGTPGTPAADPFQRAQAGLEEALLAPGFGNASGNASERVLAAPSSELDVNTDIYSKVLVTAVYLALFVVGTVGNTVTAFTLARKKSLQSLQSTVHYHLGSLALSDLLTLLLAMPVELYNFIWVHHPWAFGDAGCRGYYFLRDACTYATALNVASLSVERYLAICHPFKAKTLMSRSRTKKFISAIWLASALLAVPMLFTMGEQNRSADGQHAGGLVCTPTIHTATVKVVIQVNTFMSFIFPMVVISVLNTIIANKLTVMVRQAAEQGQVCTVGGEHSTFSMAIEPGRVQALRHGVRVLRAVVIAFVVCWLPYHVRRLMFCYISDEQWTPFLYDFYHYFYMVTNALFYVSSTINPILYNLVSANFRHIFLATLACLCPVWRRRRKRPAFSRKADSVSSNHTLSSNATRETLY
# Estrogen receptor beta, sequence (Q92731 whole entry): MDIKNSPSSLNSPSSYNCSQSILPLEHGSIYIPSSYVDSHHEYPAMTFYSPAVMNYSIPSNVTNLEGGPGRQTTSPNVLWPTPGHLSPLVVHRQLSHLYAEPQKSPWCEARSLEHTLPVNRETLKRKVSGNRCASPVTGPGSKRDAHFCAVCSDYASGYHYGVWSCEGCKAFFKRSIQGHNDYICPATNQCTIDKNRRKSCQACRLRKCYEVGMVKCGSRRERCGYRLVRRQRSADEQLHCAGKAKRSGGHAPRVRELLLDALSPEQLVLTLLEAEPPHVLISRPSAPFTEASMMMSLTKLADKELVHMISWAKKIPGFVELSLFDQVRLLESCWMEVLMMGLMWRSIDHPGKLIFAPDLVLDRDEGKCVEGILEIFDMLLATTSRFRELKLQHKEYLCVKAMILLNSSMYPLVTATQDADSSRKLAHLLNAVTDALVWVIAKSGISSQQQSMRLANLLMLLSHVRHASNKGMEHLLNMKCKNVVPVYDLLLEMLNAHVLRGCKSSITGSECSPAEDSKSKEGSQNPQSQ
# 5-hydroxytryptamine receptor 7, sequence (P34969 whole entry): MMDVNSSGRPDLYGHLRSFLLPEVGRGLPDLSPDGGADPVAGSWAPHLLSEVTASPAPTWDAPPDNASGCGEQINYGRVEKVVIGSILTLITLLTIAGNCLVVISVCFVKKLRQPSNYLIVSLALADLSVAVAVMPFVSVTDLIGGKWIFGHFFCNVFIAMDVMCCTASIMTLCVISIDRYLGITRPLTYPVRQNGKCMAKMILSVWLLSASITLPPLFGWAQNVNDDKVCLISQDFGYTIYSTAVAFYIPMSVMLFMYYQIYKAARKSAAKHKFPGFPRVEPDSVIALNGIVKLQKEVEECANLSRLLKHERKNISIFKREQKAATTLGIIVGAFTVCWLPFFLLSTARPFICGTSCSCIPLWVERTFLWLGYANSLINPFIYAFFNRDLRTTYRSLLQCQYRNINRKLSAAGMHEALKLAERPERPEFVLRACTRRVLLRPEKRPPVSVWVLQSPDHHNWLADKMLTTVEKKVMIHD
# 5-hydroxytryptamine receptor 6, sequence (P50406 whole entry): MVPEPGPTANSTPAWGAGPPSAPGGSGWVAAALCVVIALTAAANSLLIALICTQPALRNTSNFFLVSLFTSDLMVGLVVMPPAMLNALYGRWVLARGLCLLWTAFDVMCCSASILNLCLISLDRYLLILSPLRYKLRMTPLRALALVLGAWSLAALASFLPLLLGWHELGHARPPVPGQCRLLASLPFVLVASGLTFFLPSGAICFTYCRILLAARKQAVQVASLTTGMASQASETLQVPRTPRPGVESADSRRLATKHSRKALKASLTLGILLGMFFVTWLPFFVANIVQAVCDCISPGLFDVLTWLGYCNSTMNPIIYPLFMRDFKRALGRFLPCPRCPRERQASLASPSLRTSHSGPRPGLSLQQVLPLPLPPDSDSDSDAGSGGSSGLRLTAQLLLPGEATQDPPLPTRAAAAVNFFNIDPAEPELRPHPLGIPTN
SMILES,AC50 (Glucocorticoid receptor [1]) [µM],AC50 [2] [µM],AC50 (Glucocorticoid receptor [3]) [µM],AC50 [7] [µM],AC50 [8] [µM],further results
CO/N=C(\C(=O)N[C@@H]1C(=O)N2C(C(=O)[O-])=C(C[N+]3(C)CCCC3)CS[C@H]12)c1csc(N)n1,> 300,200,> 300,–,–,–
CC(=O)c1ccc2c(c1)N(CCCN1CCN(CCO)CC1)c1ccccc1S2 [ACETOPHENAZINE],> 30,> 30,> 30,–,–,–
CC(N)Cc1ccccc1 (centres undefined) [AMPHETAMINE],> 30,> 30,> 30,–,–,AC50 (Estrogen receptor beta): > 30 µM; AC50 [4]: > 30 µM; AC50 [5]: > 30 µM; AC50 [6]: > 30 µM
CN1CCCC(n2nc(Cc3ccc(Cl)cc3)c3ccccc3c2=O)CC1 (centres undefined) [AZELASTINE],> 30,> 30,> 30,–,–,–
O=C1c2c(O)c(=O)ccn2N([C@@H]2c3ccccc3SCc3c2ccc(F)c3F)[C@@H]2COCCN12 [BALOXAVIR],–,–,–,22,> 30,AC50 [9]: > 30 µM
CCC[C@@H]1C[C@@H](C(=O)N[C@@H]([C@H]2O[C@H](SC)[C@H](O)[C@@H](O)[C@H]2O)[C@H](C)Cl)N(C)C1 [CLINDAMYCIN],–,–,–,> 30,–,AC50 (D(1A) dopamine receptor): > 10 µM; AC50 (Estrogen receptor beta): > 30 µM; AC50 [10]: > 10 µM; AC50 [4]: > 30 µM; AC50 [5]: > 30 µM; AC50 [6]: > 30 µM
CN(CCOc1ccc(NS(C)(=O)=O)cc1)CCc1ccc(NS(C)(=O)=O)cc1 [DOFETILIDE],–,–,–,1.7,> 30,AC50 (D(1A) dopamine receptor): > 10 µM; AC50 [10]: > 10 µM; AC50 [4]: > 30 µM; AC50 [5]: > 30 µM; AC50 [6]: > 30 µM
C#C[C@]1(O)CC[C@H]2[C@@H]3CCc4cc(O)ccc4[C@H]3CC[C@@]21C [ETHINYL ESTRADIOL],> 30,–,> 30,–,–,AC50 (D(1A) dopamine receptor): > 10 µM; AC50 [10]: > 30 µM; AC50 [4]: > 30 µM; AC50 [9]: > 30 µM; AC50 [5]: > 30 µM; AC50 [11]: > 30 µM; AC50 [6]: 35.4 µM; AC50 [12]: > 30 µM
CCOC(=O)c1ccc(O)cc1 [ETHYLPARABEN],–,–,–,22,> 30,–
O=C(COc1ccc(Cl)cc1)N1CCN(Cc2ccc3c(c2)OCO3)CC1 [FIPEXIDE],–,–,–,0.15,6.27,–
COc1ccc2c(c1)C(=O)N(CCc1ccc(S(=O)(=O)NC(=O)NC3CCCCC3)cc1)C(=O)C2(C)C [GLIQUIDONE],8.9,–,> 30,–,–,–
CC(C)Cc1ccc(CC(=O)O)cc1 [IBUFENAC],> 30,> 30,> 30,–,–,–
CC(C)NNC(=O)c1ccncc1 [IPRONIAZID],> 30,> 30,> 30,–,–,–
CC[C@H](C)C(=O)O[C@H]1C[C@H](O)C=C2C=C[C@H](C)[C@H](CC[C@@H](O)C[C@@H](O)CC(=O)O)[C@H]21 [PRAVASTATIN],> 30,> 30,> 30,–,–,–
O=C(NC[C@H]1CN(c2ccc(N3CCOCC3=O)cc2)C(=O)O1)c1ccc(Cl)s1 [RIVAROXABAN],> 30,–,> 30,–,> 3,AC50 [9]: > 30 µM
CC(C)OC(=O)[C@H](C)N[P@](=O)(OC[C@H]1O[C@@H](n2ccc(=O)[nH]c2=O)[C@](C)(F)[C@@H]1O)Oc1ccccc1 [SOFOSBUVIR],–,–,–,> 30,> 30,–
Cc1ccc(C(=O)c2cc(O)c(O)c([N+](=O)[O-])c2)cc1 [TOLCAPONE],> 30,–,14,–,–,–
CC(=O)OC[C@H]1O[C@@H](n2ccc(=O)[nH]c2=O)[C@H](OC(C)=O)[C@@H]1OC(C)=O [URIDINE TRIACETATE],–,–,–,> 30,> 30,AC50 [9]: > 30 µM
OCc1cc([C@@H](O)CNCCCCCCOCCOCc2c(Cl)cccc2Cl)ccc1O [VILANTEROL],> 30,> 30,> 30,–,–,–
CCOC(=O)N[C@@H]1CC[C@@H]2[C@@H](C1)C[C@H]1C(=O)O[C@H](C)[C@H]1[C@H]2/C=C/c1ccc(-c2cccc(F)c2)cn1 [VORAPAXAR],–,–,–,1.3,26.3,–
